The results in this text go back to US7301020B2, “Macrolide analogs and methods for identifying same” (priority 2003, dated 2007).

In one data set the test system is NBT-II cells. In words: Effect of macrolides on NBT-II cells (live cell microscopy). It is filed as cell-based, rat. The protocol: FIG. 7: Effect of KabC on NBT-II cells. NBT-II cells are imaged after 16 hours of drug treatment. KabC concentrations: (A), Control; (B), 10 nM; (C), 100 nM and (D), 1000 nM.
Cell Culture: Rat bladder NBT-II carcinoma cells and mouse NIH 3T3 fibroblast cells are maintained and treated with external drugs as described in Choidas et al (1998).
Live cell microscopy: A multi-model microscope workstation was used to image phase contrast and fluorescence images of living cells (Choidas et al, 1998). Cells are maintained at 37° in a Hepes based culture medium in a Bioptechs cell perfusion chamber (Choidas et al, 1998).

Data set [1] deals with T1, Prodan-G-actin (Oryctolagus cuniculus, UniProt P68135). In words: Kinetic analysis of binding to Prodan-G-actin (stopped-flow and slow phase). Set-up: F-actin is purified from rabbit skeletal muscle using a standard protocol; Prodan (Acrylodan) fluorophore, chemical label on the thiol of Cys374; from tissue; host or cells: rabbit skeletal muscle; species or system rabbit. The protocol:
FIG. 3: Kinetic analyses of KabC binding of Prodan labeled G-actin. (A-B). Prodan-actin (0.1 μM) and KabC, loaded into separated syringes, were rapidly mixed within ˜1 msec dead-time. The concentrations of KabC were 0.0 μM (a), 1.0 μM (b), 1.5 μM (c), 2.0 μM (d) and 2.5 μM (data not shown), respectively. The decreases in emission intensity were well fitted with single exponential functions to determine the observed rate, kobs. The observed rates are plotted as a function of the [KabC] in panel (B).
Kinetic analysis of binding reactions. The kinetics of the KabC interaction with Prodan-actin is determined, using an Applied Photophysics SX.18MV Stopped-flow spectrometer, by following the decrease in the emission intensity of Prodan-actin at 25° C. Prodan was excited at 385 nm and emission was collected with a 470 nm (+/−5 nm) band-pass filter. In all cases the decrease in emission intensity was best fit with a single exponential function, which was then used to determine the observed rate, kobs. Kinetic constants of on rate (kon) and off rate (koff) were calculated according to the following equation: kobs=kon[KabC]+koff. The kinetics of the slower binding step observed in the interaction of KabC with Prodan-G-actin interaction is measured by measuring the ratio of fluorescence signals at 465 nm and 530 nm. The decay of this ratio is fit using a single exponential rate.

Data set [2] has as its target T1, Prodan-G-actin. Briefly: Competition-binding assay with GS1 and CapG on Prodan-G-actin. Set-up: F-actin is purified from rabbit skeletal muscle using a standard protocol; from tissue; host or cells: actin from rabbit skeletal muscle; CapG and GS1 expressed in E. coli M15; species or system rabbit. The protocol:
FIG. 4: (A) CapG: (a), Prodan-G-actin (100 nM), (b), Prodan-G-actin-CapG; (c), same as (b) in the presence of 0.2 μM KabC; (B); GS1: (a), Prodan-G-actin 100 nM; (b), Prodan-G-actin-GS1; (c), same as (b) in the presence of 0.2 μM KabC.
Characterization of actin binding proteins: The actin-binding properties of the ABPs used in this study are evaluated from changes in the fluorescence emission spectrum of Prodan-actin and actin polymerization assays as described by Marriott et al (1988).
Trisoxazolemacrolides specifically compete with GS1 for the (+)-end binding site on actin. Gelsolin, a monomeric 80 kD cytoskeleton protein composed of six domains interacts with actin filaments in a complex, Ca^2+-dependent manner (Janmey et al, 1985; Burtnick et al, 1997). Gelsolin exerts two major effects once bound to an actin filament: first it severs the filament and second it remains tightly bound to the severed (+)-end and serves to block, or cap, further growth. […] Structural analyses of G-actin complexes with GS1 (McLaughlin et al, 1993) and KabC show these unrelated molecules bind to G-actin through common contact sites that include a patch of hydrophobic residues on the surface between sub-domains 1 and 3 and within the cleft that forms between the interface of sub-domains 1 and 3 (McLaughlin et al, 1993;). GS1 binding to Prodan-G-actin shifts the average energy of the fluorescence emission to the red and is accompanied by a decrease in the quantum yield (FIG. 4A) but not to the extent seen in the KabC-G-actin complex (FIG. 2).
Trisoxazolemacrolides specifically compete with CapG for the (+)-end binding site on actin. CapG, a Ca^2+-dependent, (+)-end actin filament capping protein, is found at high levels in macrophage cells where it regulates membrane ruffling and cell protrusions associated with phagocytosis and motility (Botelho et. al., 2000). […] The Ca^2+-dependent binding of CapG to Prodan-G-actin is accompanied by a dramatic blue-shift in the emission spectrum and an increase in quantum yield (FIG. 4B, curve b). The difference in fluorescence emission spectra between free and CapG-bound Prodan-G-actin is used to quantify the parameters for this binding reaction. The G-actin-CapG complex exists as a 1:1 complex and has a dissociation constant of 100 nM (data not shown). […] This conclusion is consistent with a comparison of high-resolution structures of G-actin with GS1 and KabC and a preliminary analysis of a 2.8 Angstrom structure of a CapG mutant (Vorobiev et al, PDB database, 2002). […] However the emission properties of the CapG-Prodan-G-actin complex are unaffected by the binding of LatA, DNAse and thymosin β4 (Tβ4), which is consistent with some structural data showing that these sequestering molecules bind closer to the ATP pocket and DNAse binding loop (Kabsch et al, 1990).

Another data set concerns the target T2, Prodan-labeled G-actin (Oryctolagus cuniculus, UniProt P68135).
T2 construct: F-actin is purified from rabbit skeletal muscle using a standard protocol; Prodan (Acrylodan) fluorophore, chemical label on the thiol of Cys374; from tissue; host or cells: rabbit skeletal muscle
In words: Prodan-G-actin titration: binding stoichiometry and dissociation constant. Set-up: species or system rabbit. Conditions: Prodan-G-actin titration; read-out: dissociation constant of G-actin complex. The protocol: FIG. 2: (A), Stoichiometric binding of Prodan-labeled G-actin (1 μM) in G-buffer with KabC at final concentrations of in μm, a: 0.0; b: 0.1; c: 0.2; d: 0.3; e: 0.4; f: 0.5; g: 0.6; h: 0.7; i: 0.8; j: 0.9; k: 1.0; l: 1.1; m: 1.2; n: 1.5 (B), Plot of the integrated intensity in (A) against [KabC] yields a binding stoichiometry of 1:1.
Prodan-actin: Actin is labeled with the thiol probe, Acrylodan (Molecular Probes, Eugene, Oreg.) using a standard protocol (Marriott et al, 1988). Rabbit muscle G-actin is labeled with the thiol reactive, environmentally sensitive probe, Acrylodan, according to the inventor's earlier publication (Marriott et al, 1988). […]
Determination of the binding stoichiometry and dissociation constants for G-actin complexes with ABPs and macrolide drugs: The change in the quantum yield and/or emission energy of Prodan-actin is used to quantify the interaction of CapG and macrolides with G-actin. The stoichiometry of the CapG-G-actin and macrolide-G-actin complex is determined by titrating Prodan-G-actin at 1 μM with increasing amounts of CapG or the macrolide from 0.1^−10 μM. […] The equilibrium binding constant is determined by titrating a constant amount of Prodan labeled G-actin at 0.05˜0.1 μM in G- or F-buffer with incrementally increasing amounts of the macrolide or CapG over a range of 10 nM to 10 μM. […]

Consider `COC(CC1OC(=O)CC(O)C/C=C/C(=O)C(C)C(OC)c2coc(n2)-c2coc(n2)-c2coc(n2)/C=C/CCC1C)C(C)CCC(=O)C(C)C(C/C=C/N(C)C=O)OC` (stereo not drawn) [Hal, halichondramide], for which the “cytotoxic activity on NBT II epithelia cells” value (“cytotoxic activity” for short) with NBT-II cells is on record as “concentration dependent cytotoxic activity”. Moreover, the “binding steps in reaction with G-actin” value at Prodan-G-actin [1] is 1st and 2nd-binding steps are common.
As to `C/C1=C/C(=O)O[C@@H]2C[C@@H](CC[C@H](C)/C=C\C=C\CC1)O[C@@](O)([C@@H]1CSC(=O)N1)C2` [LatA], the “effect of binding on emission properties of CapG-Prodan-G-actin complex” value (“effect of binding” below) on Prodan-G-actin [2] is “unaffected”.
Turning to `CO[C@H]1C[C@H](CC[C@H](C)[C@H](O)[C@H](C)[C@H]2OC(=O)/C(C)=C/C[C@H](O)C[C@@H]3C=CC[C@@H](C[C@H](OC)[C@@H](C)[C@@H](O)C[C@@H](O)[C@H](C)[C@@H]([C@@H](C)[C@@H](O)[C@@H](C)CC[C@H]4C[C@H](OC)C[C@H](C)O4)OC(=O)/C(C)=C/C[C@H](O)C[C@@H]4C=CC[C@@H](C[C@H](OC)[C@@H](C)[C@@H](O)C[C@@H](O)[C@@H]2C)O4)O3)O[C@@H](C)C1` [MisA, misakinolide A], the “cytotoxic activity” value in the data set on NBT-II cells was “concentration dependent cytotoxic activity”. Further, the “binding site on actin by competition-binding assay” value at Prodan-G-actin [2] was “bind to the same site on actin as KabC, CapG and GS1”.
For `CO[C@H]1C[C@H](CC[C@H](C)[C@H](O)[C@H](C)[C@H]2OC(=O)/C=C/C(C)=C/C[C@H](O)C[C@@H]3C=CC[C@@H](C[C@H](OC)[C@@H](C)[C@@H](O)C[C@@H](O)[C@H](C)[C@@H]([C@@H](C)[C@@H](O)[C@@H](C)CC[C@H]4C[C@H](OC)C[C@H](C)O4)OC(=O)/C=C/C(C)=C/C[C@H](O)C[C@@H]4C=CC[C@@H](C[C@H](OC)[C@@H](C)[C@@H](O)C[C@@H](O)[C@@H]2C)O4)O3)O[C@@H](C)C1` [SwiA, Swinholide A], the “cytotoxic activity” value in the data set on NBT-II cells is “concentration dependent cytotoxic activity”. Moreover, the “binding site on actin by competition-binding assay” value on Prodan-G-actin [2] was “bind to the same site on actin as KabC, CapG and GS1”.
For DNAse, on Prodan-G-actin [2], the “effect of binding” value is given as “unaffected”.
As for Ulapualide A [UlaA], the “cytotoxic activity” value in the data set with NBT-II cells is “concentration dependent cytotoxic activity”. Besides, at Prodan-G-actin [1], the “binding steps in reaction with G-actin” value is 1st and 2nd-binding steps are common.
Consider “thymosin β4: actin monomer sequestering protein”, for which, in the data set with Prodan-G-actin [2], the “effect of binding” value is “unaffected”.

B1: CapG: Ca^2+-dependent, (+)-end actin filament capping protein, cloned from mouse brain cDNA library (protein, UniProt P24452 1-352, looked up)
Macrophage-capping protein: MYTPIPQSGSPFPASVQDPGLHIWRVEKLKPVPIARESHGIFFSGDSYLVLHNGPEEASHLHLWIGQQSSRDEQGACAVLAVHLNTLLGERPVQHREVQGNESDLFMSYFPRGLKYYREGGVESAFHKTTSGARGAAIRKLYQVKGKKNIRATERPLSWDSFNTGDCFILDLGQNIFAWCGGKSNILERNKARDLALAIRDSERQGKAQVEIITDGEEPAEMIQVLGPKPALKEGNPEEDITADQTRPNAQAAALYKVSDATGQMNLTKVADSSPFASELLIPDDCFVLDNGLCAQIYIWKGRKANEKERQAALQVADGFISRMRYSPNTQVEILPQGRESPIFKQFFKNWK
With B1, in the data set with Prodan-labeled G-actin, the Kd was determined as 100 nM.
